System: healthy volunteers (bent side of the forearm)
Test: 24 hour-occlusion patch test (Finn Chamber) of the original specimen
Format: in vivo, human
Settings: 46 persons, 0.03 ml original specimen
Procedure: “Test Method Using Patch Test”
The test was conducted using a Finn Chamber (8 mm in diameter) with 24 hour-occlusion.
Test subjects were 46 male and female healthy volunteers (33 males and 13 females) whose ages range from 22 to 59 (average 42); 0.03 ml of the original specimen of alkylene polyglycol dineopentanoate was applied on the bent side of the forearm of the test subjects for 24 hours. The application site was secured with an elastic bandage; three hours after the removal of the bandage and the adhesive plaster the first evaluation (after-24-hours evaluation) was conducted according to the evaluation criteria of Table 1, and 24 hours later another evaluation (after-48-hours evaluation) was conducted with the same criteria.

Row | Compound | Equivocal ± (mild erythema), number of subjects (evaluation time 24 hrs) | Negative − (no reaction), number of subjects (evaluation time 24 hrs) | Positive + (Weakly positive: erythema), number of subjects (evaluation time 24 hrs) | Positive ++ (Moderately positive: erythema + edema), number of subjects (evaluation time 24 hrs) | Positive +++ (Strongly positive), number of subjects (evaluation time 24 hrs) | Positive ++++ (Strongest positive: large blister), number of subjects (evaluation time 24 hrs) | Positive ratio (evaluation time 24 hrs) [%] | Equivocal ± (mild erythema), number of subjects (evaluation time 48 hrs) | Negative − (no reaction), number of subjects (evaluation time 48 hrs) | Positive + (Weakly positive: erythema), number of subjects (evaluation time 48 hrs) | Positive ++ (Moderately positive: erythema + edema), number of subjects (evaluation time 48 hrs) | Positive +++ (Strongly positive), number of subjects (evaluation time 48 hrs) | Positive ++++ (Strongest positive: large blister), number of subjects (evaluation time 48 hrs) | Positive ratio (evaluation time 48 hrs) [%]
1 | CC(COC(=O)C(C)(C)C)OCC(C)OC(=O)C(C)(C)C (stereo not shown) [Example 2, Dipropyleneglycol dineopentanoate] | 0 | 46 | 0 | 0 | 0 | 0 | 0 | 0 | 46 | 0 | 0 | 0 | 0 | 0
2 | CC(COC(=O)C(C)(C)C)OCC(C)OCC(C)OC(=O)C(C)(C)C (stereo not shown) [Example 1, Tripropyleneglycol dineopentanoate] | 0 | 46 | 0 | 0 | 0 | 0 | 0 | 0 | 46 | 0 | 0 | 0 | 0 | 0
3 | CC(COC(=O)C(C)(C)C)OCC(C)OCC(C)OCC(C)OC(=O)C(C)(C)C (stereo not shown) [Example 3, Tetrapropyleneglycol dineopentanoate] | 0 | 46 | 0 | 0 | 0 | 0 | 0 | 0 | 46 | 0 | 0 | 0 | 0 | 0
4 | CCCCCCCCC(=O)OCCCCCCC(C)C [compound 3, Isononyl nonanoate, reference compound] | 5 | 31 | 5 | 4 | 1 | 0 | 22 | 5 | 32 | 4 | 5 | 0 | 0 | 20
5 | Isocetyl oleate [compound 1, reference compound] | 3 | 39 | 2 | 2 | 0 | 0 | 8.7 | 2 | 40 | 4 | 0 | 0 | 0 | 8.7
